Results published in patent EP0231622B1, “Inhibition of the 5-lipoxygenase pathway” (priority 1985, dated 1987).
Marks after values point to notes of the source that are not given here.

Tests used:
[1] = test system: Experimental Allergic Encephalomyelitis; assay: Experimental allergic encephalomyelitis, hindleg paralysis; assay type: in vivo, Female Lewis rats; settings: p.o. days 0-4, 7-11, 14-18
Experimental: EAE is induced in Female (Charles River) Lewis rats by a single intradermal injection of 0.1 ml of an encephalitogenic emulsion consisting of equial parts of a 50% w/v homogenate of guinea pig spinal cord and mid-brain in 0.5% aqueous phenol and Freund's complete adjuvant (4 mg/ml killed, dried M. butyricum) into a hindpaw (left) footpad. […] Any animal which becomes paralyzed during the course of the experiment is considered to have developed EAE whether or not the paralysis is permanent. Test compounds are administered daily beginning on the day of injection, for 19 days, exclusive of days 5, 6 12 and 13. Drug activity is determined by comparing the indicidence of EAE (paralysis) of the treated group with a control (vehicle) group. The level of significant difference between the treated groups and control groups is determined by a Chi-square test using a 2x2 contingency table. Body weight changes from day 0 are also statistically compared to the control group using a Student "t" test.

[2] = test system: Polymorphonuclear Leukocytes; assay: Mouse Carrageenan Peritonitis (PMN infiltration); assay type: in vivo, Balb/c mice; settings: Table 3; 10 mg/kg, p.o.
From the text: (§1) In the following Examples where mice were used, they were male Balb/c mice (20-28 g), and where rats were used, they were male Lewis rats (180-210 g). All mice and rats were obtained from Charles River Breeding Laboratories, Kingston, N.Y. Within a single experiment, mice and rats were sex and age matched.
(§2) The compounds of Formula (IA) were used either as the free base or in the appropriate salt form. Levamisole was used as the hydrochloride salt. The compounds were homogenized in 0.5% tragacanth. Compounds were administered by gavage at the indicated dose in a final volume of 10 ml/kg. Nordihydroguaiaretic acid (NDGA) was solubilized in dimethylacetamide and diluted with olive oil for subcutaneous administration.
Mice were pretreated with either the test compound or vehicle one hour before the intraperitoneal injection of a 1.0% carrageenan suspension in saline (0.2 ml/ mouse). Mice were sacrificed by cervical dislocation two hours after injection, and 3.0 ml of phosphate buffered saline, without Ca⁺⁺ or Mg⁺⁺, was injected into the peritoneum. Following massage, a 2.0 ml aliquot of the lavage fluid was removed, and the total cell count determined on a Coulter counter and differential cell count determined by microscopic examination of Giesma-stained slides.

[3] = test system: Carrageenan-Induced Cellular Infiltration; assay: Carrageenan-induced air pouch inflammation; assay type: in vivo, Lewis rats; settings: 5 mg/kg; 3 hours after carrageenan
From the text: as §1, §2
(§3) Rats were shaved on the dorsal flank, and then injected subcutaneously one day later with 20 ml of air to form a defined pouch, by the method of Sedgwick et al., J. Pathology, 141, 483-495 (1983). The air pouch was reinflated as necessary over the next 6 days. To assay anti-inflammatory activity, animals were treated orally with test compound or vehicle (10 ml/kg) one hour before injection of 2.0 ml of a 2.0% carrageenan suspension containing 200 units/ml penicillin and 100 »g/ml streptomycin into the air pouch. In other experiments, 5 ml of 0.1% arachidonic acid in 0.2 M bicarbonate buffer was injected two hours after drug treatment. Animals were sacrificed using CO₂ three hours after instillation of irritant. The exudate was then aspirated from the pouch and neutrophil count and differential cell count were measured.

[4] = test system: Arachidonic Acid-Induced Cellular Infiltration; assay: Arachidonic acid-induced air pouch inflammation; assay type: in vivo, Lewis rats; settings: 5 mg/kg; 3 hours after arachidonic acid
From the text: as §1, §2, §3

[5] = test system: Arachidonic Acid-Induced Rat Paw Edema; assay: Arachidonic acid-induced rat paw swelling; assay type: in vivo, Lewis rats; settings: 5 mg/kg, read at 2 hours
From the text: as §1, §2

[6] = test system: Arachidonic Acid-Induced Inflammation of the Mouse Ear; assay: Arachidonic acid-induced mouse ear inflammation; assay type: in vivo, Balb/c mice; settings: Table 7; 10 mg/kg, p.o.
From the text: as §1, §2
Arachidonic acid in acetone (2 mg/20 ul) was applied to the inner surface of the left ear. The thickness of both ears was then measured with a dial micrometer one hour after treatment, and the data were expressed as the change in thickness (10⁻³ cm) between treated and untreated ears.
Test compounds were given orally in 0.5% tragacanth at the times indicated in the text prior to the topical application of arachidonic acid.
Parenteral administration of compound was accomplished by subcutaneous injection of solution as indicated.

5-LO = biological target: T1, 5-LO (Rattus norvegicus, UniProt P12527); assay: di-HETE production by RBL-1 high speed supernatant; assay type: biochemical; settings: concentrations up to 10⁻⁴M; soluble extract of RBL-1 cells
T1 construct: The activities of these enzymes in extracts of RBL-1 cells were assayed; host or cells: RBL-1 cells, disrupted by nitrogen cavitation; 10,000 x g or 100,000 x g supernatant
T1 sequence (P12527 1-673): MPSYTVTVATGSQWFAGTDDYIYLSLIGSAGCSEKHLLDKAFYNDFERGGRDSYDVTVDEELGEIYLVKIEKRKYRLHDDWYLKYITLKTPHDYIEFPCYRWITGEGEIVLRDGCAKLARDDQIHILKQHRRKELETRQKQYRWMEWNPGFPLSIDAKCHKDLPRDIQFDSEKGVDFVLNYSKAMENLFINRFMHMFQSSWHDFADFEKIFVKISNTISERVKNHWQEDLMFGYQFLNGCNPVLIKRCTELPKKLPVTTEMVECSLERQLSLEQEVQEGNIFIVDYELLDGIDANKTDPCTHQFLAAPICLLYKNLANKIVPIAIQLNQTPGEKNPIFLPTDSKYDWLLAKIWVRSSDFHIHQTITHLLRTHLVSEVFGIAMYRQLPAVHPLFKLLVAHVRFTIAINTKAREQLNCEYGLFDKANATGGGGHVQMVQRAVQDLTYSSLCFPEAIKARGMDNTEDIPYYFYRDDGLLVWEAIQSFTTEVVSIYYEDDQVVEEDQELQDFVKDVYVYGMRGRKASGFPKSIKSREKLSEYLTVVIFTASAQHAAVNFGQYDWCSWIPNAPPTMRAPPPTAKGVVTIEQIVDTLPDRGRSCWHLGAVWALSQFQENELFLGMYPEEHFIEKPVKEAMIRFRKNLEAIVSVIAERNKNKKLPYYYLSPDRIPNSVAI
Experimental: For in vitro experiments, compounds were dissolved at appropriate concentrations in ethanol or DMSO (dimethylsulfoxide) (final concentration <1.0%) and then diluted to final concentrations using the buffers indicated in the text.
The activities of these enzymes in extracts of RBL-1 cells were assayed using the method of Jakschik and Lee, Nature, 287, 51-52 (1980). RBL-1 cells were obtained from the American Type Culture Collection (#CRL 1378) and were grown at 37°C (5% CO₂ in air) in spinner culture in MEM supplemented with 10% heat inactivated fetal calf serum. Harvested cells were washed with 50 mM sodium phosphate buffer, pH 7.0, containing 1 mM EDTA and 0.1% gelatin, resuspended in fresh buffer (5 x 10⁷ cells/ml) and disrupted by nitrogen cavitation using the Parr bomb at 750 psi for 10 min. The broken cell extract was then centrifuged at 10,000 x g for 20 minutes and the supernatant centrifuged at 100,000 x g for 60 minutes. Aliquots (0.25 mls) of the supernatant were preincubated with or without drugs for 10 min, after which 10 ul CaCl₂ (50 mM) was added and the reaction was initiated with 2.5 ul of 2.5 mM arachidonic acid-1-¹⁴C (final concentration was […]; specific activity 20,000 dpm/nmole). After incubation for 3 min at 37°C, the reaction was terminated by addition of 2 volumes (0.5 ml) ice cold acetone and the sample was allowed to deproteinize on ice for 10 min prior to centrifugation at 1,000 x g for 10 min. The deproteinized supernatant was adjusted to pH 3.5 with 2N formic acid and extracted with 2 volumes of ice cold ethyl acetate. The extracted samples were dried under argon, redissolved in ethyl acetate and applied to Whatman LK5D thin layer chromatography (TLC) plates which were developed using the A-9 solvent system [organic phase of ethyl acetate: 2,2,5-trimethylpentane:acetic acid: water (110:50:20:10)] described by Hamberg and Samuelsson, J. Biol. Chem., 241, 257-263 (1966). Arachidonic acid, 5-HETE, di-HETE and PGD₂ were quantified with a Berthold LB 2832 autoscanner.
The 5-lipoxygenase and LTA₄ synthetase activities were further studied under the following conditions. An additional centrifugation of the RBL-1 supernatant was run at 100,000 x g for 60 min, to remove the particulate cyclooxygenase activity. Sample incubation was done under conditions similar to those described above, i.e., 2 mM CaCl₂ and 25 uM arachidonic acid-1-¹⁴C, however, with an incubation time of 5 min at […]. Under these conditions, only the 5-lipoxygenase pathway metabolites were detectable. The 5-HETE and di-HETEs were formed at a linear rate, and […] amounts of the arachidonic acid-1-¹⁴C substrate were utilized.

SMILES	HINDLEG PARALYSIS - CUMULATIVE INCIDENCE DAY 9 TO 13 ([1]; 0.3 Mg/kg/day)	HINDLEG PARALYSIS - CUMULATIVE INCIDENCE DAY 14 TO 18 ([1]; 0.3 Mg/kg/day)	% Change [2]	PMN x 10⁻⁵/ml (mean ± S.D.) [2]	Cellular Infiltrate (Total x 10⁻⁶) MN [3]	Cellular Infiltrate (Total x 10⁻⁶) PMN [3]	Exudate Volume [3]	Cellular Infiltrate (Total x 10⁻⁶) MN [4]	Cellular Infiltrate (Total x 10⁻⁶) PMN [4]	Exudate Volume [4]	Change in Paw Volume ([5]; one hour before arachidonic acid)	(% Inhibition) of change in paw volume [5]	Increase in Ear Thickness at 1 Hour (x 10⁻³ cm) [6]	effect on eicosanoid formation (di-HETE production) (5-LO)	HINDLEG PARALYSIS - CUMULATIVE INCIDENCE DAY 9 TO 13 ([1]; 2 Mg/kg/day)	HINDLEG PARALYSIS - CUMULATIVE INCIDENCE DAY 14 TO 18 ([1]; 2 Mg/kg/day)
CN(Cc1cnc2nc(N)nc(N)c2n1)c1ccc(C(=O)N[C@@H](CCC(=O)O)C(=O)O)cc1 [METHOTREXATE]	0/11**	0/11**														
COc1ccc2c(c1)c(CC(=O)O)c(C)n2C(=O)c1ccc(Cl)cc1 [Indomethacin]			-12^b %	8.20 ± 2.65 x 10⁻⁵/ml	4.0 ± 0.8 x 10⁻⁶	2.8 ± 0.7^d x 10⁻⁶	2.0 ± 0.5 mL	7.0 ± 6.4 x 10⁻⁶	5.0 ± 3.8 x 10⁻⁶	2.5 ± 0.8 mL	0.29 ± 0.06 mL	0%	24.4 ± 0.8 x 10⁻³ cm	inactive	6/11	10/11
